In one data set the target is Aurora kinase B (Homo sapiens, UniProt Q96GD4). Description: Inhibition of aurora B kinase using 5TAMRA-GRTGRRNSICOOH as substrate by fluorescent assay.
A further data set has as its target T1, Aurora kinase A (Homo sapiens, UniProt O14965).
T1 sequence (O14965 whole entry): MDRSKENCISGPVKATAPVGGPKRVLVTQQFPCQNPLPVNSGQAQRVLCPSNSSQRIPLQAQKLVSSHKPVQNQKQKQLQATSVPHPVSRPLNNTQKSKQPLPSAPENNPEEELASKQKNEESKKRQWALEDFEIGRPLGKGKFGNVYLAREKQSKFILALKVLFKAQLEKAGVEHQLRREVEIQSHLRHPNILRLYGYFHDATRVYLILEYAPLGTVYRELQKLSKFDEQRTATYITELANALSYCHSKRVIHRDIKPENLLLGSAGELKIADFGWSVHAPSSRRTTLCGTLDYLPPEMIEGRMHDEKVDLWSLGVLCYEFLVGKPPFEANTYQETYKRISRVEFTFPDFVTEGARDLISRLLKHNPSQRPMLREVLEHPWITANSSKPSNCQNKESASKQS
The data set is described as follows: Inhibition of aurora A kinase using 5TAMRA-GRTGRRNSICOOH as substrate by fluorescent assay.

A short description of a further data set: cells. The format is cell-based. The conditions noted are these: Homo sapiens, HCT-116, 1 h.
The target of data set [1] is Mitogen-activated protein kinase 1 (Homo sapiens, UniProt P28482). Description: Inhibition of ERK2.
The target of data set [2] is Interleukin-1 receptor-associated kinase 4 (Homo sapiens, UniProt Q9NWZ3). Description: Inhibition of IRAK4.
Chain of Interleukin-1 receptor-associated kinase 4 (Q9NWZ3 whole entry): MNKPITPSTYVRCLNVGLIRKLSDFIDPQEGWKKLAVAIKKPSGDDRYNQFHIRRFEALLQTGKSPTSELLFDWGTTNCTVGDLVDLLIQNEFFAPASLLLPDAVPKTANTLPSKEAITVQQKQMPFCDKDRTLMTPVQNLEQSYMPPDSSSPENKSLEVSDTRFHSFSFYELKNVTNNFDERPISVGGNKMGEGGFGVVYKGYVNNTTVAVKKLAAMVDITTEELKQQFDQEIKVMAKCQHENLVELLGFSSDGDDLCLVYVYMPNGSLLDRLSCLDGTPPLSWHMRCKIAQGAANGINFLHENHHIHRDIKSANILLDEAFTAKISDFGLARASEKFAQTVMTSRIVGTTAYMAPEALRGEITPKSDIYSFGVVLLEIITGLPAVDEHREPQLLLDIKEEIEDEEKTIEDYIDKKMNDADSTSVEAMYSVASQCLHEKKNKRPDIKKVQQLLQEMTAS
In data set [3] the target is Serine/threonine-protein kinase Chk1 (Homo sapiens, UniProt O14757). The data set is described as follows: Inhibition of Chk1.
In data set [4] the target is Calcium/calmodulin-dependent protein kinase type IV (Homo sapiens, UniProt Q16566). The data set is described as follows: Inhibition of Camk4.
For data set [5], the target named is RAC-alpha serine/threonine-protein kinase (Homo sapiens, UniProt P31749). Description: Inhibition of Akt1.
A short description of data set [6]: Oral bioavailability in mouse. The format is ADME, organism-based. The conditions noted are these: in vivo.
A short description of data set [7]: Aqueous solubility of the compound. The format is physicochemical. The conditions noted are these: buffer.
Data set [8] in a line: Clearance in mouse. Type of data set: ADME, organism-based. The conditions noted are these: in vivo.
A short description of data set [9]: Clearance in human hepatocytes assessed per million cells. The format is ADME, cell-based, Liver, Hepatocyte.
The nature of data set [10]: Permeability across apical to basolateral side in human Caco2 cell membrane. The conditions noted are these: Caco-2, read-out: permeability. Type of data set: ADME, cell-based.
The nature of data set [11]: Plasma protein binding in human. The conditions noted are these: read-out: PPB (converted). Type of data set: ADME, cell-free.
A further data set has as its target hERG (KCNH2) (Homo sapiens, UniProt Q12809). Description: Inhibition of human ERG assessed as Rb efflux at 1.5 ug/ml.
The target of the next data set is Cytochrome P450 2C9 (Homo sapiens, UniProt P11712). Description: inhibition of CYP2C9. Type of data set: ADME.
The target of a further data set is Cytochrome P450 2D6 (Homo sapiens, UniProt P10635). Description: inhibition of CYP2D6. The format is ADME.
Another data set concerns the target Cytochrome P450 3A4 (Homo sapiens, UniProt P08684). Description: inhibition of CYP3A4. Type of data set: ADME.
A short description of data set [12]: Inhibition of IGRF.
Data set [13] deals with Inhibitor of nuclear factor kappa-B kinase subunit beta (Homo sapiens, UniProt O14920). Description: Inhibition of IKKb.
For data set [14], the target named is Tyrosine-protein kinase JAK2 (Homo sapiens, UniProt O60674). The data set is described as follows: Inhibition of Jak2.
Data set [15] addresses Tyrosine-protein kinase Lck (Homo sapiens, UniProt P06239). Description: Inhibition of LCK.
Data set [16] deals with Hepatocyte growth factor receptor (Homo sapiens, UniProt P08581). Description: Inhibition of cMet.
Chain of Hepatocyte growth factor receptor (P08581 whole entry): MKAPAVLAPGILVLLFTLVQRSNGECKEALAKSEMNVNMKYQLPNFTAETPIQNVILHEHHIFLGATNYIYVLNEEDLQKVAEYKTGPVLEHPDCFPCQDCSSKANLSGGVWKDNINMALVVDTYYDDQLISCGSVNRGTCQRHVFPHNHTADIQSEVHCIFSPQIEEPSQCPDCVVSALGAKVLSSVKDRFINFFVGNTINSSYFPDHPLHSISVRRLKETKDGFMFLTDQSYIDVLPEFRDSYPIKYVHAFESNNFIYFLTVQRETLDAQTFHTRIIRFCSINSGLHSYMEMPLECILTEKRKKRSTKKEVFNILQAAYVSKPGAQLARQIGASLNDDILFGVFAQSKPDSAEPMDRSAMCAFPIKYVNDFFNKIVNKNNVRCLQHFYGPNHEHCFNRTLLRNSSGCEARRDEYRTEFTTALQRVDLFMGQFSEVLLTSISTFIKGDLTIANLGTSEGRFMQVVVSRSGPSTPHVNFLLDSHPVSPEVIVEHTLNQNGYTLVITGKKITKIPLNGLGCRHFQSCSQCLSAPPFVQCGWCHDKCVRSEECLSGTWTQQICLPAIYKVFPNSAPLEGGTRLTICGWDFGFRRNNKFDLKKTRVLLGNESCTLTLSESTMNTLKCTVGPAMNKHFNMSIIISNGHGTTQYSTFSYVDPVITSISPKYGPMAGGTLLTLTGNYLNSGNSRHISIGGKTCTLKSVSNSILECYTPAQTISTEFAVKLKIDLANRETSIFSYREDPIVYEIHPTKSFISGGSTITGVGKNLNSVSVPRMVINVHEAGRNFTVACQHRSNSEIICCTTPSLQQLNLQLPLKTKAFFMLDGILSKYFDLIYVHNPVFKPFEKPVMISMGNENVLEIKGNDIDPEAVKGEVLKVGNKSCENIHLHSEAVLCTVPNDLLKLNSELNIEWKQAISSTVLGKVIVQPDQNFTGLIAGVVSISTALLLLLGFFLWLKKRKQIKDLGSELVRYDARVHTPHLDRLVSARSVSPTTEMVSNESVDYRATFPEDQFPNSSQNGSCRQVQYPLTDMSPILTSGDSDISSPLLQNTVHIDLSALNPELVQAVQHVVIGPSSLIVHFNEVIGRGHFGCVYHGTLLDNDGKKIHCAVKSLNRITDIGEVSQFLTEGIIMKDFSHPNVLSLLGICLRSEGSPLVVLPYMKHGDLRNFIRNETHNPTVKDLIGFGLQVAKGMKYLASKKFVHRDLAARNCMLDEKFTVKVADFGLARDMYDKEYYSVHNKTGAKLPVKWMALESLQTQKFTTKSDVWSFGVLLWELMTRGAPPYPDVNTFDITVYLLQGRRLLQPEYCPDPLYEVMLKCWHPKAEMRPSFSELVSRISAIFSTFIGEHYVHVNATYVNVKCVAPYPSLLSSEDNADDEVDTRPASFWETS
Data set [17] has as its target Serine/threonine-protein kinase 3 (Homo sapiens, UniProt Q13188). Description: Inhibition of MST2.
Data set [18] concerns the target Protein kinase C alpha type (Homo sapiens, UniProt P17252). The data set is described as follows: Inhibition of PKCa.
The target of data set [19] is Serine/threonine-protein kinase PLK3 (Homo sapiens, UniProt Q9H4B4). Description: Inhibition of PLK3.
Chain of Serine/threonine-protein kinase PLK3 (Q9H4B4 whole entry): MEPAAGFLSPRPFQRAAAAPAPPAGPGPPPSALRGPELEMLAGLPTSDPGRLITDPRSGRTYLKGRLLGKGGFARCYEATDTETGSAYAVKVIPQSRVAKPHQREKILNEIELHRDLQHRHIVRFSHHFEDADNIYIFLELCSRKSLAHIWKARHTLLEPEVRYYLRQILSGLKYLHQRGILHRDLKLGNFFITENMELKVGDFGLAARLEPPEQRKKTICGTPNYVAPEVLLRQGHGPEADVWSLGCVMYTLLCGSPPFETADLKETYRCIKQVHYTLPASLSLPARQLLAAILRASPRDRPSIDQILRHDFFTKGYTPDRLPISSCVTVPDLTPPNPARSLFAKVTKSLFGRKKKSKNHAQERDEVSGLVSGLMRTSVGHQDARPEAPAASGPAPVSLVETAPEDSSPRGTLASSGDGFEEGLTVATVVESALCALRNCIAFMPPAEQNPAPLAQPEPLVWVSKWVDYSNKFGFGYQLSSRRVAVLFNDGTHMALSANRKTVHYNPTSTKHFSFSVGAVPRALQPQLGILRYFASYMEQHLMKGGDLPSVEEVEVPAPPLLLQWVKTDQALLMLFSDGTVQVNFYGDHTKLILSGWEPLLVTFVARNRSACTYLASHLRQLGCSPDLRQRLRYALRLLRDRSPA
Data set [20] addresses Rho-associated protein kinase 2 (Homo sapiens, UniProt O75116). The data set is described as follows: Inhibition of Rock2.
For data set [21], the target named is Ribosomal protein S6 kinase alpha-3 (Homo sapiens, UniProt P51812). The data set is described as follows: Inhibition of RSK2.
In data set [22] the target is Testis-specific serine/threonine-protein kinase 2 (Homo sapiens, UniProt Q96PF2). The data set is described as follows: Inhibition of TSSK2.
Chain of Testis-specific serine/threonine-protein kinase 2 (Q96PF2 whole entry): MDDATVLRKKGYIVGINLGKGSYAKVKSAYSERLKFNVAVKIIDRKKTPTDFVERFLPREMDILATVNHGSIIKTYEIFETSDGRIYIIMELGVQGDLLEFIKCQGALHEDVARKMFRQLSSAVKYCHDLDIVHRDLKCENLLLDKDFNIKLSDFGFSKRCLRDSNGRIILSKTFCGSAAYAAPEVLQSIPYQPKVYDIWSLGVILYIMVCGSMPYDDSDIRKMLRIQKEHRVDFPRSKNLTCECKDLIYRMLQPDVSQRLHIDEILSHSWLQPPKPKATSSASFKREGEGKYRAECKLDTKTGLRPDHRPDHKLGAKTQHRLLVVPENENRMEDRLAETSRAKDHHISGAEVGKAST
Data set [23] has as its target Vascular endothelial growth factor receptor 2 (Homo sapiens, UniProt P35968). Description: Inhibition of VEGFR2.

In brackets after ≈: the same amount, converted by molar mass.

Chain of Aurora kinase B (Q96GD4 whole entry): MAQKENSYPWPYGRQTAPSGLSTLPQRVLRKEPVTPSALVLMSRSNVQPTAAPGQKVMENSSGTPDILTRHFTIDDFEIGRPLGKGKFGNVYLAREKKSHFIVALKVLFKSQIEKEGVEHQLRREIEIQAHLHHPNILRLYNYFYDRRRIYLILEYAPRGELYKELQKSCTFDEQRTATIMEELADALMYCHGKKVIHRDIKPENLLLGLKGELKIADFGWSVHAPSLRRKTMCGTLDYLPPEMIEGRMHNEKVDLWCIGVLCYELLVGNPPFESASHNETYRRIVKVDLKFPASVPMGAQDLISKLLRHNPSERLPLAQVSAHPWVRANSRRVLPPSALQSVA
Chain of Vascular endothelial growth factor receptor 2 (P35968 whole entry): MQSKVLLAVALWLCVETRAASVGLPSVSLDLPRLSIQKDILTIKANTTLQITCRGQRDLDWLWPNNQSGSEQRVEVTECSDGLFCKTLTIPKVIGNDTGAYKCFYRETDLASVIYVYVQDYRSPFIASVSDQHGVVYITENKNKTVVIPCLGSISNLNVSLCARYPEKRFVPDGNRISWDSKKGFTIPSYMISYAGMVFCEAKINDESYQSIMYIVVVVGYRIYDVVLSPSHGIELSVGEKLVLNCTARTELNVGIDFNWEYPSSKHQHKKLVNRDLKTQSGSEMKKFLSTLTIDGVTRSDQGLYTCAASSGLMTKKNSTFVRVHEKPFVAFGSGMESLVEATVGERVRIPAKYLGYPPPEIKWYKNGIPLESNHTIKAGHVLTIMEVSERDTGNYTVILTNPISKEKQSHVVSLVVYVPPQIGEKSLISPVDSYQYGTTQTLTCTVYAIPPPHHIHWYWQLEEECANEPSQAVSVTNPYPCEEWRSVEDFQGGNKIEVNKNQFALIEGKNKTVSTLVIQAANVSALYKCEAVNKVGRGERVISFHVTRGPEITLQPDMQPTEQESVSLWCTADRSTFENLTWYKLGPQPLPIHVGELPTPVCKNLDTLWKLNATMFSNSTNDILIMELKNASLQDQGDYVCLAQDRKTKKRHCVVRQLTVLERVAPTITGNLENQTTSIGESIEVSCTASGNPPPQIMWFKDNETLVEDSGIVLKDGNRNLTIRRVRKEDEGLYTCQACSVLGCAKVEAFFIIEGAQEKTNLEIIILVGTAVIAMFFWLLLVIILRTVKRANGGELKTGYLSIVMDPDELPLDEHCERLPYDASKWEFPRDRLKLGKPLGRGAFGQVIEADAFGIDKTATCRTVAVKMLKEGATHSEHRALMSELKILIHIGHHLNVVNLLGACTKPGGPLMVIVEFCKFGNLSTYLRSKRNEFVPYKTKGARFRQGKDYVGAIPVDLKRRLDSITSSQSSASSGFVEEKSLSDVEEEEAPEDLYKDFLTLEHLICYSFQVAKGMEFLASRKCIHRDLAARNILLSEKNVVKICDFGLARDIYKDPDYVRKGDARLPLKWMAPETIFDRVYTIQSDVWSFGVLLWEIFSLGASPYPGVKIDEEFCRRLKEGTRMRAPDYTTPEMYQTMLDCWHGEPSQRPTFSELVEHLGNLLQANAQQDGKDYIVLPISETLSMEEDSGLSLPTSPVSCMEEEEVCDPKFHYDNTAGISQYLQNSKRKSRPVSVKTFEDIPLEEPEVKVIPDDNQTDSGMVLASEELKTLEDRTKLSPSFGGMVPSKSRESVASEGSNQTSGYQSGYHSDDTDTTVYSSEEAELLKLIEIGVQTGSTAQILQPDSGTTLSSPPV
Chain of Tyrosine-protein kinase Lck (P06239 whole entry): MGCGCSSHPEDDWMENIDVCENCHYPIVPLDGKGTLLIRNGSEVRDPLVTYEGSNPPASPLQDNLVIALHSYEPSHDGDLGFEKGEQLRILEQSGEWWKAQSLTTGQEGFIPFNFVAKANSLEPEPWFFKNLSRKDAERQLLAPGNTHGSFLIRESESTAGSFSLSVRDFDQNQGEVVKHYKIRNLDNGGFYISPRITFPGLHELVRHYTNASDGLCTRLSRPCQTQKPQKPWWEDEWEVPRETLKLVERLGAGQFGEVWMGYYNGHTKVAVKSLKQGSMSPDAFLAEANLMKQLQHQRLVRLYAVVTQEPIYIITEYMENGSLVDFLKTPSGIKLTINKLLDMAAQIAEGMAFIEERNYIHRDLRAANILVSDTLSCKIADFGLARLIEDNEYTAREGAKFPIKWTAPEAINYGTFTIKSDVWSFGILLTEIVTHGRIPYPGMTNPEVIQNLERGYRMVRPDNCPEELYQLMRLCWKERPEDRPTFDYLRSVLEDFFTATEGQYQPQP

A word on the IC50: it is the concentration that gives 50% inhibition. What is called EC50 is the concentration giving half of the maximal effect. Low readings indicate a more potent agent, high ones a less potent agent. With `Cc1cc(Nc2nc(C#N)cn3c(-c4cn[nH]c4)cnc23)sn1`, the concentration for half-maximal inhibition (IC50) at Aurora kinase B (read-out: IC50) amounted to 219 nM; against Aurora kinase A, 46 nM. This molecule also came in with a concentration giving a half-maximal response (EC50) in “cells” of over 10000 nM.
In the case of `Cc1cc(Nc2nc(C3CC3)cn3c(-c4cn[nH]c4)cnc23)sn1`, the values for the half-inhibitory concentration (IC50) on Aurora kinase B (read-out: IC50) and on Aurora kinase A were 51 nM and 17 nM, respectively. Moreover, the concentration for a half-maximal effect (EC50) in the data set “cells” worked out at 2600 nM.
Turning to `Cc1nsc(Nc2nccn3c(-c4cnn(C)c4)cnc23)n1`, the IC50 entry is “Not Active” against Aurora kinase B and over 10000 nM at Aurora kinase A.
As for `Cc1cc(Nc2nc(Sc3ccc(F)cc3)cn3c(-c4cn[nH]c4)cnc23)sn1`, on Aurora kinase B (read-out: IC50), the half-inhibitory concentration (IC50) came to 129 nM. In the data set “cells”, this molecule registered an EC50 of 2500 nM.
Consider `Cc1cc(Nc2nc(CCN)cn3c(-c4cn[nH]c4)cnc23)sn1`, for which the 50% inhibitory concentration (IC50) on Aurora kinase B (read-out: IC50) worked out at 33 nM; at Aurora kinase A, 83 nM. Further, in the data set “cells”, the EC50 is over 10000 nM.
Regarding `Cn1cc(-c2cnc3c(Nc4cc(C5CCNCC5)ns4)nccn23)cn1`, the results for the half-inhibitory concentration (IC50) on Aurora kinase B (read-out: IC50) and against Aurora kinase A were 200 nM and 1600 nM, respectively.
For `Cc1cc(Nc2nc(-c3cccnc3)cn3c(-c4cn[nH]c4)cnc23)sn1`, the concentration for half-maximal inhibition (IC50) was 62 nM at Aurora kinase B (read-out: IC50) and 8 nM at Aurora kinase A. Further, the EC50 in the data set “cells” was over 10000 nM.
Turning to `Cn1cc(-c2cnc3c(Nc4cc(C5CCN(S(C)(=O)=O)CC5)ns4)nccn23)cn1`, the IC50 on Aurora kinase B (read-out: IC50) is 110 nM; against Aurora kinase A it was 170 nM.
Regarding `Cc1csc(Nc2nccn3c(-c4cnn(C)c4)cnc23)n1`, the figures for the half-maximal inhibitory concentration (IC50) entry against Aurora kinase B and at Aurora kinase A were “Not Active” and over 10000 nM, respectively.
In the case of `CN(C)S(=O)(=O)c1ccc(Nc2nccn3c(-c4cnn(C)c4)cnc23)cc1`, the IC50 result was “Not Active” at Aurora kinase B and 3700 nM on Aurora kinase A.
Take `Cc1cc(Nc2nc(CN3CCOCC3)cn3c(-c4cn[nH]c4)cnc23)sn1`: the concentration for half-maximal inhibition (IC50) on Aurora kinase B (read-out: IC50) worked out at 110 nM; against Aurora kinase A it was 50 nM. Besides, the EC50 in “cells” is over 10000 nM.
For `CS(=O)(=O)N1CCC(c2cc(Nc3nccn4c(-c5cn[nH]c5)cnc34)sn2)CC1` the same measures were 18 nM, 6 nM and 1300 nM.
In the case of `Cc1cc(Nc2nc(S(C)(=O)=O)cn3c(-c4cn[nH]c4)cnc23)sn1`, the concentration for half-maximal inhibition (IC50) is over 3000 nM on Aurora kinase B (read-out: IC50) and 603 nM against Aurora kinase A.
For `Cc1cc(Nc2nccn3c(-c4cnn(C)c4)cnc23)sn1` the same measures were 360 nM and 570 nM.
In the case of `CCSc1cn2c(-c3cn[nH]c3)cnc2c(Nc2cc(C)ns2)n1`, the half-maximal inhibitory concentration (IC50) at Aurora kinase B (read-out: IC50) is 24 nM.
As for `Cc1cc(Nc2nccn3c(-c4cn[nH]c4)cnc23)sn1`, the 50% inhibitory concentration (IC50) was at most 13 nM on Aurora kinase B (read-out: IC50) and at most 4 nM against Aurora kinase A. Besides, the EC50 in the data set “cells” is 1300 nM.
Take `Cc1cc(Nc2nc(SC(C)(C)C)cn3c(-c4cn[nH]c4)cnc23)sn1`: the half-inhibitory concentration (IC50) on Aurora kinase B (read-out: IC50) turned out to be 272 nM. Moreover, the concentration giving a half-maximal response (EC50) in “cells” is 5600 nM.
With `Cc1cc(Nc2nc(C(F)(F)F)cn3c(-c4cn[nH]c4)cnc23)sn1`, the IC50 was 252 nM on Aurora kinase B (read-out: IC50) and 27 nM against Aurora kinase A. The molecule further gave a concentration for a half-maximal effect (EC50) in “cells” of over 10000 nM.
For the molecule `CC(C)c1cc(Nc2nccn3c(-c4cnn(C)c4)cnc23)sn1`, the values for the IC50 at Aurora kinase B (read-out: IC50) and against Aurora kinase A were 700 nM and 640 nM, respectively.
Regarding `CN(C)c1cccc(Nc2nccn3c(-c4cnn(C)c4)cnc23)c1`, the values for the half-inhibitory concentration (IC50) result at Aurora kinase B and against Aurora kinase A were “Not Active” and over 10000 nM, respectively.
As for `Cc1cc(Nc2nc([S+](C)[O-])cn3c(-c4cn[nH]c4)cnc23)sn1` (racemic), the IC50 on Aurora kinase B (read-out: IC50) came out at 185 nM; at Aurora kinase A, 30 nM. In addition, in the data set “cells”, the EC50 was over 10000 nM.
For `Cc1cc(Nc2nc(SCCN(C)C)cn3c(-c4cn[nH]c4)cnc23)sn1`, in “cells”, the EC50 is over 10000 nM.
Usually bioavailability stands for dose-corrected exposure relative to a reference, in per cent. A word on the solubility: it is how much of the substance goes into solution per volume. In general, clearance refers to a measure of how efficiently the substance is removed, as volume per time. A higher clearance goes with efficient removal. For orientation: hepatocyte CLint means a measure of how fast metabolising enzymes remove a compound, apart from limits set by blood flow. As a reminder, the inhibition is the relative decrease from the control value, in per cent. As for `CSc1cn2c(-c3cn[nH]c3)cnc2c(Nc2cc(C)ns2)n1`, the IC50 at Aurora kinase B (read-out: IC50) is at most 13 nM; in data set [1] it was over 10000 nM; in data set [2] it was 167 nM; in data set [3], 187 nM; in [4], over 10000 nM; in [5] it was over 10000 nM. Moreover, the IC50 in [12] is over 10000 nM; in [13] it was over 10000 nM; in data set [14], over 10000 nM; in data set [15], 468 nM; in data set [16] it was over 10000 nM; in data set [17], over 10000 nM. Also, the concentration for half-maximal inhibition (IC50) in data set [18] was over 10000 nM; in data set [19], 785 nM; in data set [20], over 10000 nM; in [21] it was 1310 nM; in data set [22], over 10000 nM; in data set [23], 36 nM. This molecule also yielded an EC50 in “cells” of 600 nM. The bioavailability in data set [6] was 4%. This molecule also had a solubility in data set [7] of 25 µM (≈ 8.59 µg/mL). The clearance in [8] was determined as 89 mL/min/kg. The molecule also had an intrinsic metabolic clearance (hepatocyte CLint) in data set [9] of 49.7 µL/min/1e6 cells. Moreover, the Papp A→B in [10] turned out to be 63.3 ×10⁻⁶ cm/s. In addition, the fraction unbound in data set [11] is 0.006. In addition, at hERG (KCNH2), the inhibition at 1.5 ug/ml worked out at 8.7%. The INH at Cytochrome P450 2C9, on Cytochrome P450 2D6 and at Cytochrome P450 3A4 was over 20 µM throughout.
For the molecule `Cc1csc(Nc2nccn3c(-c4cnn(C)c4)cnc23)c1`, the half-inhibitory concentration (IC50) at Aurora kinase B (read-out: IC50) is 3000 nM; at Aurora kinase A, 2500 nM.
The matching figures for `O=S(=O)(c1ccc(Nc2nccn3c(-c4cn[nH]c4)cnc23)cc1)N1CCOCC1`: 120 nM and 81 nM.
Consider `Cc1cc(Nc2nc(C)cn3c(-c4cn[nH]c4)cnc23)sn1`, for which the IC50 on Aurora kinase B (read-out: IC50) is at most 13 nM. Besides, it took 250 nM to reach a half-maximal effect in the data set “cells” (EC50).
The matching figures for `CCc1cn2c(-c3cn[nH]c3)cnc2c(Nc2cc(C)ns2)n1`: at most 13 nM and 850 nM.

The record behind these values is ChEMBL document CHEMBL1799927, “Discovery of imidazo[1,2-a]pyrazine-based Aurora kinase inhibitors” (Bioorg Med Chem Lett, 2010).
